ChEMBL document CHEMBL1143427, “Interactions of ceftobiprole with beta-lactamases from molecular classes A to D” (Antimicrob Agents Chemother, 2007)

Tests used:
[1] = system: Klebsiella pneumoniae; assay: Activity of Klebsiella pneumoniae TEM26 assessed as drug hydrolysis by spectrophotometry
[2] = system: Klebsiella pneumoniae; assay: Ratio of Kcat to Km of Klebsiella pneumoniae TEM26 assessed as drug hydrolysis by spectrophotometry
[3] = system: Klebsiella pneumoniae; assay: Activity of Klebsiella pneumoniae TEM26 assessed as drug hydrolysis by spectrophotometry relative to cephaloridine; parameters: scale not given: the % may be the effect or the level left
[4] = target: T1, Beta-lactamase (Klebsiella oxytoca) (UniProt Q8RT60); assay: Activity of Klebsiella oxytoca beta-lactamase K1 assessed as drug hydrolysis by spectrophotometry relative to cephaloridine; parameters: scale not given: the % may be the effect or the level left
T1 sequence (whole entry): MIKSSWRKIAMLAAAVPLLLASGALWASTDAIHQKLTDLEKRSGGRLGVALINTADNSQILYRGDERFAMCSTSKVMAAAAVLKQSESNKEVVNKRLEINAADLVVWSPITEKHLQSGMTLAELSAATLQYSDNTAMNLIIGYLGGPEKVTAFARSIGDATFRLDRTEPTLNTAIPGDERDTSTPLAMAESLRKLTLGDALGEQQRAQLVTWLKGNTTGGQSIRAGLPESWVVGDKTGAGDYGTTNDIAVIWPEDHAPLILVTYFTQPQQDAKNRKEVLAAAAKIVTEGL

[5] = target: Beta-lactamase CTX-M (Escherichia coli) (UniProt Q9EXV5); assay: Activity of Escherichia coli CTX-M-15 assessed as drug hydrolysis by spectrophotometry relative to cephaloridine; parameters: scale not given: the % may be the effect or the level left
[6] = target: Beta-lactamase CTX-M (Escherichia coli) (UniProt Q9EXV5); assay: Ratio of Kcat to Km of Escherichia coli CTX-M-15 assessed as drug hydrolysis by spectrophotometry relative to cephaloridine; parameters: scale not given: the % may be the effect or the level left
[7] = system: Klebsiella pneumoniae; assay: Ratio of Kcat to Km of Klebsiella pneumoniae TEM26 assessed as drug hydrolysis by spectrophotometry relative to cephaloridine; parameters: scale not given: the % may be the effect or the level left
[8] = target: T1, Beta-lactamase (Klebsiella oxytoca); assay: Ratio of Kcat to Km of Klebsiella oxytoca beta-lactamase K1 assessed as drug hydrolysis by spectrophotometry relative to cephaloridine; parameters: scale not given: the % may be the effect or the level left
[9] = target: Beta-lactamase (Pseudomonas aeruginosa (strain ATCC 15692 / PAO1 / 1C / PRS 101 / LMG12228)) (UniProt P24735); assay: Activity of Pseudomonas aeruginosa AmpC assessed as drug hydrolysis by spectrophotometry relative to cephaloridine; parameters: scale not given: the % may be the effect or the level left
[10] = target: Beta-lactamase (Pseudomonas aeruginosa (strain ATCC 15692 / PAO1 / 1C / PRS 101 / LMG12228)) (UniProt P24735); assay: Activity of Pseudomonas aeruginosa 4352 AmpC assessed as drug hydrolysis by spectrophotometry relative to cephaloridine; parameters: scale not given: the % may be the effect or the level left
[11] = target: Beta-lactamase (Serratia marcescens) (UniProt P18539); assay: Activity of Serratia marcescens AmpC assessed as drug hydrolysis by spectrophotometry relative to cephaloridine; parameters: scale not given: the % may be the effect or the level left
[12] = target: Beta-lactamase (Serratia marcescens) (UniProt P18539); assay: Ratio of Kcat to Km of Serratia marcescens AmpC assessed as drug hydrolysis by spectrophotometry relative to cephaloridine; parameters: scale not given: the % may be the effect or the level left
[13] = target: Beta-lactamase (Pseudomonas aeruginosa (strain ATCC 15692 / PAO1 / 1C / PRS 101 / LMG12228)) (UniProt P24735); assay: Ratio of Kcat to Km of Pseudomonas aeruginosa AmpC assessed as drug hydrolysis by spectrophotometry relative to cephaloridine; parameters: scale not given: the % may be the effect or the level left
[14] = target: Beta-lactamase (Staphylococcus aureus) (UniProt P00807); assay: Ratio of Kcat to Km of Staphylococcus aureus betalactamase PC1 assessed as drug hydrolysis by spectrophotometry relative to cephaloridine; parameters: scale not given: the % may be the effect or the level left
[15] = target: T2, Beta-lactamase SHV-1 (Klebsiella pneumoniae) (UniProt P0AD64); assay: Activity of Klebsiella pneumoniae SHV1 assessed as drug hydrolysis by spectrophotometry relative to cephaloridine; parameters: scale not given: the % may be the effect or the level left
T2 sequence (whole entry): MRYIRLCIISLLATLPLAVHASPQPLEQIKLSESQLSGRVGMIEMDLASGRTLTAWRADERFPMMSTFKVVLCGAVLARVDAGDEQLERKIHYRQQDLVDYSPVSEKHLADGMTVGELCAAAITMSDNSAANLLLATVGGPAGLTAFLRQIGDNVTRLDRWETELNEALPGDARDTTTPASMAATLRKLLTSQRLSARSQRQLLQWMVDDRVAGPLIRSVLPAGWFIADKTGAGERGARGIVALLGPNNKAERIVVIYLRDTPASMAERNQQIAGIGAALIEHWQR

[16] = target: Beta-lactamase (Pseudomonas aeruginosa (strain ATCC 15692 / PAO1 / 1C / PRS 101 / LMG12228)) (UniProt P24735); assay: Ratio of Kcat to Km of Pseudomonas aeruginosa MK-1184 AmpC assessed as drug hydrolysis by spectrophotometry relative to cephaloridine; parameters: scale not given: the % may be the effect or the level left
[17] = target: T3, Beta-lactamase (Providencia stuartii) (UniProt O69773); assay: Ratio of Kcat to Km of Providencia stuartii AmpC assessed as drug hydrolysis by spectrophotometry relative to cephaloridine; parameters: scale not given: the % may be the effect or the level left
T3 sequence (whole entry): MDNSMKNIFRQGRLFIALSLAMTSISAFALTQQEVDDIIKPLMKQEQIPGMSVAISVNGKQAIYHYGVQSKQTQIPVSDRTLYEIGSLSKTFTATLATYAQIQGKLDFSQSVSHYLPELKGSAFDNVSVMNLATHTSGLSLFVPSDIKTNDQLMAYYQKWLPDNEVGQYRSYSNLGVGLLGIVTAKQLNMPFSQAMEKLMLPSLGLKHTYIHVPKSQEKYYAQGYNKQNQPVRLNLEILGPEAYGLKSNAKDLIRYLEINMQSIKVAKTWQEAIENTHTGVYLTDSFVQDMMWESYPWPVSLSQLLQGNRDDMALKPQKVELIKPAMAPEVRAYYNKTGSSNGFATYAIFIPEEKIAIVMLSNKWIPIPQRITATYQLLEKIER

[18] = target: Beta-lactamase (Pseudomonas aeruginosa (strain ATCC 15692 / PAO1 / 1C / PRS 101 / LMG12228)) (UniProt P24735); assay: Ratio of Kcat to Km of Pseudomonas aeruginosa 18SH AmpC assessed as drug hydrolysis by spectrophotometry relative to cephaloridine; parameters: scale not given: the % may be the effect or the level left
[19] = target: T4, Carbapenem-hydrolyzing beta-lactamase SME-3 (Serratia marcescens) (UniProt Q6PRG8); assay: Activity of Serratia marcescens SME3 assessed as drug hydrolysis by spectrophotometry relative to cephaloridine; parameters: scale not given: the % may be the effect or the level left
T4 sequence (whole entry): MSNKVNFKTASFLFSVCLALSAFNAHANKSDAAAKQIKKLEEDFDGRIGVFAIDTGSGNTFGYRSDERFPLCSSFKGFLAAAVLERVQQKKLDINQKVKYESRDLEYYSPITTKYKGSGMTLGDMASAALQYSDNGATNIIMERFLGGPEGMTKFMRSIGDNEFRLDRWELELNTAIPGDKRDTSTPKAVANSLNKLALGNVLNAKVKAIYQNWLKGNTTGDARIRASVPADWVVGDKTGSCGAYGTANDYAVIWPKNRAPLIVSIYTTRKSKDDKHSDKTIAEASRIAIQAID

[20] = target: Beta-lactamase TEM (Escherichia coli) (UniProt P62593); assay: Activity of Escherichia coli TEM1 assessed as drug hydrolysis by spectrophotometry relative to cephaloridine; parameters: scale not given: the % may be the effect or the level left
[21] = target: Beta-lactamase TEM (Escherichia coli) (UniProt P62593); assay: Ratio of Kcat to Km of Escherichia coli TEM1 assessed as drug hydrolysis by spectrophotometry relative to cephaloridine; parameters: scale not given: the % may be the effect or the level left
[22] = target: Beta-lactamase (Pseudomonas aeruginosa (strain ATCC 15692 / PAO1 / 1C / PRS 101 / LMG12228)) (UniProt P24735); assay: Activity of Pseudomonas aeruginosa 18SH AmpC assessed as drug hydrolysis by spectrophotometry relative to cephaloridine; parameters: scale not given: the % may be the effect or the level left
[23] = target: Metallo beta-lactamase (Pseudomonas aeruginosa) (UniProt Q6TUJ4); assay: Ratio of Kcat to Km of Pseudomonas aeruginosa IMP1 assessed as drug hydrolysis by spectrophotometry relative to cephaloridine; parameters: scale not given: the % may be the effect or the level left
[24] = target: T2, Beta-lactamase SHV-1 (Klebsiella pneumoniae); assay: Ratio of Kcat to Km of Klebsiella pneumoniae SHV1 assessed as drug hydrolysis by spectrophotometry relative to cephaloridine; parameters: scale not given: the % may be the effect or the level left
[25] = target: Beta-lactamase (Pseudomonas aeruginosa (strain ATCC 15692 / PAO1 / 1C / PRS 101 / LMG12228)) (UniProt P24735); assay: Ratio of Kcat to Km of Pseudomonas aeruginosa 4352 AmpC assessed as drug hydrolysis by spectrophotometry relative to cephaloridine; parameters: scale not given: the % may be the effect or the level left
[26] = target: Beta-lactamase VIM-2 (Pseudomonas aeruginosa) (UniProt Q9K2N0); assay: Ratio of Kcat to Km of Pseudomonas aeruginosa VIM2 assessed as drug hydrolysis by spectrophotometry relative to cephaloridine; parameters: scale not given: the % may be the effect or the level left
[27] = target: Beta-lactamase VIM-2 (Pseudomonas aeruginosa) (UniProt Q9K2N0); assay: Activity of Pseudomonas aeruginosa VIM2 assessed as drug hydrolysis by spectrophotometry relative to cephaloridine; parameters: scale not given: the % may be the effect or the level left
[28] = target: T4, Carbapenem-hydrolyzing beta-lactamase SME-3 (Serratia marcescens); assay: Ratio of Kcat to Km of Serratia marcescens SME3 assessed as drug hydrolysis by spectrophotometry relative to cephaloridine; parameters: scale not given: the % may be the effect or the level left
[29] = target: Beta-lactamase (Pseudomonas aeruginosa (strain ATCC 15692 / PAO1 / 1C / PRS 101 / LMG12228)) (UniProt P24735); assay: Activity of Pseudomonas aeruginosa MK-1184 AmpC assessed as drug hydrolysis by spectrophotometry relative to cephaloridine; parameters: scale not given: the % may be the effect or the level left
[30] = target: T3, Beta-lactamase (Providencia stuartii); assay: Activity of Providencia stuartii AmpC assessed as drug hydrolysis by spectrophotometry relative to cephaloridine; parameters: scale not given: the % may be the effect or the level left
[31] = target: Beta-lactamase (Morganella morganii) (UniProt P94958); assay: Activity of Morganella morganii AmpC assessed as drug hydrolysis by spectrophotometry relative to cephaloridine; parameters: scale not given: the % may be the effect or the level left
[32] = target: Beta-lactamase (Morganella morganii) (UniProt P94958); assay: Ratio of Kcat to Km of Morganella morganii AmpC assessed as drug hydrolysis by spectrophotometry relative to cephaloridine; parameters: scale not given: the % may be the effect or the level left
[33] = target: Beta-lactamase (Staphylococcus aureus) (UniProt P00807); assay: Activity of Staphylococcus aureus betalactamase PC1 assessed as drug hydrolysis by spectrophotometry relative to cephaloridine; parameters: scale not given: the % may be the effect or the level left

Sequence of Beta-lactamase (Pseudomonas aeruginosa (strain ATCC 15692 / PAO1 / 1C / PRS 101 / LMG12228)) (P24735 27-397 limits assumed): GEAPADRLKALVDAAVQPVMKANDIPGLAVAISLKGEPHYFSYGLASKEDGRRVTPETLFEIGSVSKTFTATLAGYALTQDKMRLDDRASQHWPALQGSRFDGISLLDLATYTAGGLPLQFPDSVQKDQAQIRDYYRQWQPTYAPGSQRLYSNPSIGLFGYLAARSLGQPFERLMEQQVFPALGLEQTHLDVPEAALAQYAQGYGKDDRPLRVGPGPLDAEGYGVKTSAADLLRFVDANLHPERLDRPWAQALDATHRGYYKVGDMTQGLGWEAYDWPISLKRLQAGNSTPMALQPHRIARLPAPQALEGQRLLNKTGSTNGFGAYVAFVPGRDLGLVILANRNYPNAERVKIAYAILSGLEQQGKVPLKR
Sequence of Beta-lactamase TEM (Escherichia coli) (P62593 whole entry): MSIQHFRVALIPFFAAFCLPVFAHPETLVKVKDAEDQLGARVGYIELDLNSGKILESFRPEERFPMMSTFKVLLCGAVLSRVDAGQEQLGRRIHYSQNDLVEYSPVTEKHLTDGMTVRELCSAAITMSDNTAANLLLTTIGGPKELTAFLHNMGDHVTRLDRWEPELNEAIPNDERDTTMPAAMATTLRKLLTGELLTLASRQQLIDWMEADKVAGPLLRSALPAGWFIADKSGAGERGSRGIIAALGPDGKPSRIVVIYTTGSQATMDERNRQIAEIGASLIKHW
Sequence of Beta-lactamase (Serratia marcescens) (P18539 whole entry): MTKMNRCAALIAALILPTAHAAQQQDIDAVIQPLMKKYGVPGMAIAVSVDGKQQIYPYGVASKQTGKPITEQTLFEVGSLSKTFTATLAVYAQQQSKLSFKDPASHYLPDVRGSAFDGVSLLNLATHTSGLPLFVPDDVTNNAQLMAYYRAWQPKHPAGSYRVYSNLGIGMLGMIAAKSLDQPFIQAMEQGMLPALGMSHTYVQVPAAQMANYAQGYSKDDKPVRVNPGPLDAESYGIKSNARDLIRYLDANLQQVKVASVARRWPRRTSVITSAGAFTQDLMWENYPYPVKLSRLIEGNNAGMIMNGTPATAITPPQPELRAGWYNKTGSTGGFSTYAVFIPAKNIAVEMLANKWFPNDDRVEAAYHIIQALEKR
Sequence of Beta-lactamase (Staphylococcus aureus) (P00807 whole entry): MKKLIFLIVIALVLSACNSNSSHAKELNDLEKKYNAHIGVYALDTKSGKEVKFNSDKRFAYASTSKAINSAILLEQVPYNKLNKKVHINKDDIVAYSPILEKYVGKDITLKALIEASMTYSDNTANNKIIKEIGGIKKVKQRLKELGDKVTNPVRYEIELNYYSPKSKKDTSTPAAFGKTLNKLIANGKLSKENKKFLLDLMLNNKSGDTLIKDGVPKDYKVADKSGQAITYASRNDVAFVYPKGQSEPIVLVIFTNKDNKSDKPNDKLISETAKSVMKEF
Sequence of Metallo beta-lactamase (Pseudomonas aeruginosa) (Q6TUJ4 as listed by the source): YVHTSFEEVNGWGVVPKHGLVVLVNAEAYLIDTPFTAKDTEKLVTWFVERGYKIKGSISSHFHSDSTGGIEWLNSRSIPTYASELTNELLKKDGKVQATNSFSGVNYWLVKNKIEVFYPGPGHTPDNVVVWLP

Structure (SMILES): O=C(Cc1cccs1)N[C@@H]1C(=O)N2C(C(=O)[O-])=C(C[n+]3ccccc3)CS[C@H]12
- Km [1]: 66 µM
- kcat [1]: 37 s⁻¹
- kcat/Km [2]: 560000 M⁻¹ s⁻¹

Structure (SMILES): CO/N=C(\C(=O)N[C@@H]1C(=O)N2C(C(=O)O)=C(COC(C)=O)CS[C@H]12)c1csc(N)n1
- Km [1]: 15 µM
- kcat [1]: 2.9 s⁻¹
- Activity [3]: 7.8%
- Activity [4]: 13%
- Activity [5]: 95%
- Activity [6]: 140%
- Activity [7]: 34%
- kcat/Km [2]: 190000 M⁻¹ s⁻¹
- Activity [8]: 2.3%

Structure (SMILES): Nc1nc(/C(=N/O)C(=O)N[C@@H]2C(=O)N3C(C(=O)O)=C(/C=C4\CCN([C@@H]5CCNC5)C4=O)CS[C@H]23)ns1
- Km [1]: 63 µM
- kcat [1]: 6.9 s⁻¹
- Activity [3]: 19%
- Activity [9]: 1400%
- Activity [10]: < 0.024%
- Activity [11]: < 0.14%
- Activity [12]: < 0.27%
- Activity [13]: 9900%
- Activity [14]: 24%
- Activity [4]: 33%
- Activity [15]: 6%
- Activity [5]: 140%
- Activity [16]: 1%
- Activity [17]: 0.11%
- Activity [6]: 290%
- Activity [18]: 0.71%
- Activity [19]: 0.49%
- Activity [20]: 0.9%
- Activity [21]: 1.6%
- Activity [22]: 0.028%
- Activity [23]: 990%
- Activity [7]: 20%
- kcat/Km [2]: 110000 M⁻¹ s⁻¹
- Activity [8]: 100%
- Activity [24]: 7.4%
- Activity [25]: 0.14%
- Activity [26]: 380%
- Activity [27]: 13%
- Activity [28]: 0.73%
- Activity [29]: 2%
- Activity [30]: 0.03%
- Activity [31]: < 0.0064%
- Activity [32]: < 0.071%
- Activity [33]: 17%
